According to the supplement of paper PMC11061612:

Key:
Experiment in all cases: combination Emax (second highest fraction inhibited in the dose matrix, 72 h); higher = more inhibition; extreme values may be limits of the assay
[1] = system: CAL-62 (Thyroid Gland Carcinoma)
Procedure, shortened: (§1)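 After 24 hours at 37°C and 5% CO2 in 1536-well plates, cells in DMEM/F12 or RPMI plus 10% FBS received two-drug dose matrices for 72 hours. Viability came from CellTiter-Glo 2.0 luminescence and was scaled as inhibition, anchored at 0 by vehicle wells and at 1 by blank wells. Combination Emax is taken as the second-highest inhibition in the matrix, and Bliss excess as the observed combination effect less EA + EB − EA·EB, with EA and EB the single-agent effects.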

[2] = system: COLO-680N (Esophageal Squamous Cell Carcinoma)
Procedure, shortened: as §1

[3] = system: FADU (Head and Neck Carcinoma)
Procedure, shortened: as §1

[4] = system: GP5d (Colorectal Carcinoma)
Procedure, shortened: as §1

[5] = system: HEC-1 (Endometrial Carcinoma)
Procedure, shortened: as §1

IST-MES1 (Mesothelioma) = system: IST-MES1 (Mesothelioma)
Procedure, shortened: as §1

[6] = system: LB996-RCC (Kidney Carcinoma)
Procedure, shortened: as §1

[7] = system: LK-2 (Squamous Cell Lung Carcinoma)
Procedure, shortened: as §1

[8] = system: MFE-280 (Endometrial Carcinoma)
Procedure, shortened: as §1

[9] = system: NCI-H2342 (Lung Adenocarcinoma)
Procedure, shortened: as §1

[10] = system: OAW-42 (Ovarian Carcinoma)
Procedure, shortened: as §1

[11] = system: OPM-2 (Plasma Cell Myeloma)
Procedure, shortened: as §1

[12] = system: PC-3_[JPC-3] (Lung Adenocarcinoma)
Procedure, shortened: as §1

[13] = system: PSN1 (Pancreatic Carcinoma)
Procedure, shortened: as §1

[14] = system: RCM-1 (Colorectal Carcinoma)
Procedure, shortened: as §1

SF268 (Low Grade Glioma) = system: SF268 (Low Grade Glioma)
Procedure, shortened: as §1

SF539 (Glioblastoma) = system: SF539 (Glioblastoma)
Procedure, shortened: as §1

[15] = system: SU-DHL-10 (B-Cell Non-Hodgkin's Lymphoma)
Procedure, shortened: as §1

WM793B (Melanoma) = system: WM793B (Melanoma)
Procedure, shortened: as §1

[16] = system: RKN (Other Solid Carcinomas)
Procedure, shortened: as §1

SMILES | combination Emax [1] | combination Emax [2] | combination Emax [3] | combination Emax [4] | combination Emax [5] | combination Emax (IST-MES1 (Mesothelioma)) | combination Emax [6] | combination Emax [7] | combination Emax [8] | combination Emax [9] | combination Emax [10] | combination Emax [11] | combination Emax [12] | combination Emax [13] | combination Emax [14] | combination Emax (SF268 (Low Grade Glioma)) | combination Emax (SF539 (Glioblastoma)) | combination Emax [15] | combination Emax (WM793B (Melanoma)) | combination Emax [16]
CN(CCO)CC[C@H](CSc1ccccc1)Nc1ccc(S(=O)(=O)NC(=O)c2ccc(N3CCC([C@@H](O)c4ccccc4-c4ccc(Cl)cc4)CC3)cc2)cc1S(=O)(=O)C(F)(F)F [AZD4320] + CCN(CCO)CCCOc1ccc2c(Nc3cc(CC(=O)Nc4cccc(F)c4)[nH]n3)ncnc2c1 [AZD2811] (first compound max 1 µM, 7x7, partner max 1 µM) | 0.488 | 0.137 | 0.245 | 0.566 | 0.494 | 0.213 | 0.485 | 0.967 | 0.888 | 0.384 | 0.14 | 0.693 | 0.147 | 0.349 | 0.545 | 0.519 | 0.584 | 0.759 | 0.246 | 
Cc1cc2ncnn2cc1Nc1ncc2c(n1)n(C1CCOCC1)c(=O)n2C [AZD7648] + C[C@@H]1COCCN1C2=NC(=NC(=C2)C3(CC3)[S@](=N)(=O)C)C4=C5C=CNC5=NC=C4 [AZD6738] (first compound max 10 µM, 7x7, partner max 10 µM) | 0.724 | 0.265 | 0.695 | 0.822 | 0.423 | 0.313 | 0.668 | 0.39 | 0.337 | 0.24 |  | 0.822 | 0.426 | 0.418 | 0.855 | 0.303 | 0.85 | 0.878 | 0.818 | 0.225
Cc1cc2ncnn2cc1Nc1ncc2c(n1)n(C1CCOCC1)c(=O)n2C [AZD7648] + O=C(c1cc(Cc2n[nH]c(=O)c3ccccc23)ccc1F)N1CCN(C(=O)C2CC2)CC1 [Olaparib] (first compound max 10 µM, 7x7, partner max 10 µM) | 0.377 | 0.101 | 0.237 | 0.28 | 0.114 | 0.234 | 0.423 | 0.335 | 0.434 | 0.12 |  | 0.294 | 0.19 | 0.31 | 0.125 | 0.117 | 0.406 | 0.16 | 0.341 | 0.189
Cc1nc(Nc2ncc(C(=O)Nc3c(C)cccc3Cl)s2)cc(N2CCN(CCO)CC2)n1 [Dasatinib] + CC(=O)Nc1cccc(-n2c(=O)n(C3CC3)c(=O)c3c(Nc4ccc(I)cc4F)n(C)c(=O)c(C)c32)c1 [Trametinib] (first compound max 2 µM, 7x7, partner max 1 µM) | 0.955 | 0.554 | 0.515 | 0.697 | 0.295 | 0.924 | 0.893 | 0.63 | 0.486 | 0.232 | 0.722 | 0.801 | 0.738 | 0.942 | 0.798 |  | 0.602 | 0.837 | 0.705 | 0.712
COc1cccc2c1C(=O)c1c(O)c3c(c(O)c1C2=O)C[C@@](O)(C(=O)CO)C[C@@H]3O[C@H]1C[C@H](N)[C@H](O)[C@H](C)O1 [Doxorubicin] + Cc1cc2ncnn2cc1Nc1ncc2c(n1)n(C1CCOCC1)c(=O)n2C [AZD7648] (first compound max 1 µM, 7x7, partner max 10 µM) | 0.817 | 0.67 | 0.928 | 0.693 | 0.367 | 0.767 | 0.796 | 0.632 | 0.835 | 0.349 |  | 0.845 | 0.57 | 0.788 | 0.605 | 0.538 | 0.934 | 0.975 | 0.801 | 0.693
CS(=O)(=O)CCNCc1ccc(-c2ccc3ncnc(Nc4ccc(OCc5cccc(F)c5)c(Cl)c4)c3c2)o1 [Lapatinib] + NC1(c2ccc(-c3nc4ccn5c(=O)[nH]nc5c4cc3-c3ccccc3)cc2)CCC1 [MK-2206] (first compound max 10 µM, 7x7, partner max 10 µM) | 0.721 | 0.467 |  |  |  | 0.638 |  | 0.892 | 0.911 | 0.196 | 0.819 | 0.972 | 0.927 | 0.562 | 0.514 |  | 0.953 |  |  | 0.346
COc1cccc(OCCCN)c1-c1cc(Nc2cnc(C#N)cn2)n[nH]1 [Prexasertib] + C=CCn1c(=O)c2cnc(Nc3ccc(N4CCN(C)CC4)cc3)nc2n1-c1cccc(C(C)(C)O)n1 [AZD1775] (first compound max 1 µM, partner max 1 µM) | 0.86 | 0.505 | 0.914 | 1 | 0.715 | 0.609 | 0.877 | 0.92 | 0.739 | 0.415 |  | 0.967 | 0.588 | 0.781 | 0.822 | 0.561 | 1 | 1 | 0.938 | 0.833
COc1cccc(OCCCN)c1-c1cc(Nc2cnc(C#N)cn2)n[nH]1 [Prexasertib] + CN(C)CCCOc1ccc(-c2ccc3ncc4c(c3c2)n(C2CCOCC2)c(=O)n4C)cn1 [AZD0156] (first compound max 1 µM, 7x7, partner max 1 µM) | 0.735 | 0.414 | 0.808 | 0.983 | 0.655 | 0.218 | 0.712 | 0.726 | 0.441 | 0.345 |  | 0.936 | 0.384 | 0.444 | 0.818 | 0.493 | 0.963 | 0.999 | 0.903 | 0.67
COc1cccc(OCCCN)c1-c1cc(Nc2cnc(C#N)cn2)n[nH]1 [Prexasertib] + C[C@@H]1COCCN1C2=NC(=NC(=C2)C3(CC3)[S@](=N)(=O)C)C4=C5C=CNC5=NC=C4 [AZD6738] (first compound max 1 µM, 7x7, partner max 10 µM) | 0.785 | 0.416 | 0.918 | 0.967 | 0.74 | 0.278 | 0.786 | 0.689 | 0.398 | 0.294 |  | 0.909 | 0.426 | 0.536 | 0.862 | 0.514 | 0.972 | 1 | 0.907 | 0.577
COc1cccc(OCCCN)c1-c1cc(Nc2cnc(C#N)cn2)n[nH]1 [Prexasertib] + Cc1cc2ncnn2cc1Nc1ncc2c(n1)n(C1CCOCC1)c(=O)n2C [AZD7648] (first compound max 1 µM, 7x7, partner max 10 µM) | 0.776 | 0.37 | 0.851 | 0.964 | 0.53 | 0.355 | 0.776 | 0.755 | 0.405 | 0.309 |  | 0.912 | 0.324 | 0.461 | 0.796 | 0.48 | 0.985 | 0.999 | 0.866 | 0.658
COc1cccc(OCCCN)c1-c1cc(Nc2cnc(C#N)cn2)n[nH]1 [Prexasertib] + O=C(c1cc(Cc2n[nH]c(=O)c3ccccc23)ccc1F)N1CCN(C(=O)C2CC2)CC1 [Olaparib] (first compound max 1 µM, 7x7, partner max 10 µM) | 0.779 | 0.342 | 0.897 | 0.945 | 0.416 | 0.283 | 0.759 | 0.799 | 0.416 | 0.302 |  | 0.943 | 0.31 | 0.456 | 0.596 | 0.623 | 1 | 1 | 0.873 | 0.678
COc1cc2c(cc1OCCCCCOc1cc3c(cc1OC)C(=O)N1C=C(C)C[C@H]1C=N3)N=C[C@@H]1CC(C)=CN1C2=O [SG3199] + O=C(c1cc(Cc2n[nH]c(=O)c3ccccc23)ccc1F)N1CCN(C(=O)C2CC2)CC1 [Olaparib] (first compound max 0.001 µM, 7x7, partner max 10 µM) | 0.102 | 0.0893 | 0.115 | 0.189 | 0.176 | 0.218 | 0.282 | 0.28 | 0.184 | 0.0836 |  | 0.0651 | 0.193 | 0.127 | 0.0628 | 0.115 | 0.268 | 0.23 | 0.194 | 0.0618
CCc1c2c(nc3ccc(O)cc13)-c1cc3c(c(=O)n1C2)COC(=O)[C@]3(O)CC [SN-38] + CN(C)CCCOc1ccc(-c2ccc3ncc4c(c3c2)n(C2CCOCC2)c(=O)n4C)cn1 [AZD0156] (first compound max 0.3 µM, 7x7, partner max 1 µM) | 0.872 | 0.412 | 1 | 0.655 | 0.398 | 0.875 | 0.898 | 0.584 | 0.611 | 0.225 |  | 0.772 | 0.732 | 0.705 | 0.86 | 0.902 | 0.895 | 0.986 | 0.85 | 0.631
C[C@@H](c1ccc2nccn2c1)n1nnc2ncc(-c3cnn(C)c3)nc21 [Savolitinib] + CN(CC[C@H](CSC1=CC=CC=C1)NC2=C(C=C(C=C2)S(=O)(=O)NC(=O)C3=CC=C(C=C3)N4CCC(CC4)[C@H](C5=CC=CC=C5C6=CC=C(C=C6)Cl)O)S(=O)(=O)C(F)(F)F)CCO [AZD4320] (first compound max 1 µM, 7x7, partner max 1 µM) |  |  | 0.221 | 0.29 | 0.423 |  | 0.19 |  |  |  | 0.275 |  |  |  |  | 0.172 |  | 0.0854 | 0.137 | 
